Reference: ChEMBL document CHEMBL4823268 (Eur J Med Chem, 2021)
Values belong to the compound of their own block, whether it stands above or below them. Active and inactive are the calls of the source. The rule behind the calls is not given here.

How the values were obtained:
[1] = biological target: T1, Glycogen synthase kinase-3 beta (Homo sapiens, UniProt P49841); assay: biochemical; type: cell-based, Sf9
Target sequence in this assay (P49841 whole entry): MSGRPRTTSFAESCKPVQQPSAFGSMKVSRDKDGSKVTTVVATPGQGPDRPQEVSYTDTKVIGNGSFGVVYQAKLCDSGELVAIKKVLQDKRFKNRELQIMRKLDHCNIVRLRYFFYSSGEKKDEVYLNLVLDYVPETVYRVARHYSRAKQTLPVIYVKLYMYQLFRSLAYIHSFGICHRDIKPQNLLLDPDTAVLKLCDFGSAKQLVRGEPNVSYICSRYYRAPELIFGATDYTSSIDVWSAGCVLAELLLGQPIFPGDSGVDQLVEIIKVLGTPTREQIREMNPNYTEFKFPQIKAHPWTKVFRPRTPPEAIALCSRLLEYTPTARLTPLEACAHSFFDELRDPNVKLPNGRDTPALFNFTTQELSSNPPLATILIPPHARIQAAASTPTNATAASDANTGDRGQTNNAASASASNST

[2] = Permeability of compound by PAMPA-BBB assay
[3] = system: Mus musculus; assay: Improvement in learning and spatial memory in mouse harboring APP/PSI/Tau assessed as improvement in trajectory at […], po for 30 consecutive days and studied for 5 days by Morris water maze test relative to control; type: functional, organism-based; conditions: time 5.0 day
[4] = biological target: Dual specificity tyrosine-phosphorylation-regulated kinase 1A (Rattus norvegicus, UniProt Q63470); assay: Inhibition of rat recombinant DYRK1A expressed in Escherichia coli using RRRFRPASPLRGPPK as substrate by ADP-Glo kinase assay
[5] = system: Mus musculus; assay: Improvement in learning and spatial memory in mouse harboring APP/PSI/Tau assessed as improvement in trajectory at 20 mg/kg, po for 30 consecutive days and studied for 5 days by Morris water maze test relative to control; type: functional, organism-based; conditions: time 30.0 day
[6] = biological target: T1, Glycogen synthase kinase-3 beta; assay: Inhibition of GSK3beta phosphorylation expression in human SH-SY5Y cells at 250 to 1000 nM by Western blot analysis; type: cell-based; conditions: dose 250-1000 nM
Target sequence in this assay (P49841 whole entry, looked up): as the sequence (P49841 whole entry) above

[7] = biological target: Dual specificity tyrosine-phosphorylation-regulated kinase 1A (Homo sapiens) (UniProt Q13627); assay: Inhibition of DYRK1A in human SH-SY5Y cells assessed as decrease in OKA-induce DYRK1A-Tyr321/27 hyperphosphorylation at 250 to 1000 nM by Western blot analysis; type: cell-based; conditions: dose 250-1000 nM
[8] = biological target: T1, Glycogen synthase kinase-3 beta; assay: Inhibition of human full length GSK3beta expressed in baculovirus in Sf9 insect cells assessed as enzyme activity using YRRAAVPPSPSLSRHSSPHQ(pS)EDEEE as substrate at 0.7 uM by ADP-Glo kinase assay relative to control; design: scale not given: the % may be the effect or the level left
Target sequence in this assay (P49841 whole entry, looked up): as the sequence (P49841 whole entry) above

[9] = system: Mus musculus; assay: Improvement in learning and spatial memory in mouse harboring APP/PSI/Tau assessed as decrease in escape latency at 10 to 30 mg/kg, po for 30 consecutive days and studied for 5 days by Morris water maze test relative to control; type: functional, organism-based; conditions: dose 10-30 mg/kg, time 30.0 day
[10] = biological target: T1, Glycogen synthase kinase-3 beta; assay: Inhibition of GSK3beta in human SH-SY5Y cells assessed as decrease in OKA-induce tau-S396 hyperphosphorylation at 250 to 1000 nM by Western blot analysis; type: cell-based; conditions: dose 250-1000 nM
Target sequence in this assay (P49841 whole entry, looked up): as the sequence (P49841 whole entry) above

[11] = system: Mus musculus; assay: Cognitive enhancing effect in mouse harboring APP/PSI/Tau assessed as improvement in time spent in the platform quadrant at 10 to 30 mg/kg, po for 30 consecutive days and studied for 5 days by Morris water maze test relative to control; type: functional, organism-based; conditions: dose 10-30 mg/kg, time 30.0 day
[12] = Neurotoxicity against human SH-SY5Y cells assessed as cell viability at 10 uM measured for 24 to 72 hrs by MTT assay; type: cell-based; conditions: time 24-72 hrs
[13] = Neurotoxicity against human SH-SY5Y cells assessed as cell viability at 15 to 20 uM measured for 36 to 72 hrs by MTT assay; type: cell-based; conditions: dose lower 15 µM, time lower 36 hrs, dose upper 20 µM, time upper 72 hrs
[14] = system: L02; assay: Cytotoxicity against human HL7702 cells assessed as cell viability measured at 5 to 20 uM for 24 to 72 hrs by MTT assay; type: cell-based; conditions: l02, 20 µM, dose lower 5 µM, time lower 24 hrs, dose upper 20 µM, time upper 72 hrs
[15] = biological target: T1, Glycogen synthase kinase-3 beta; assay: Inhibition of human full length GSK3beta expressed in baculovirus in Sf9 insect cells assessed as enzyme activity using YRRAAVPPSPSLSRHSSPHQ(pS)EDEEE as substrate at 0.14 uM by ADP-Glo kinase assay relative to control; design: scale not given: the % may be the effect or the level left
Target sequence in this assay (P49841 whole entry, looked up): as the sequence (P49841 whole entry) above

[16] = system: Mus musculus; assay: Cognitive enhancing effect in mouse harboring APP/PSI/Tau assessed as improvement in number of crossing the virtual platform at 10 to 30 mg/kg, po for 30 consecutive days and studied for 5 days by Morris water maze test relative to control; type: functional, organism-based; conditions: dose 10-30 mg/kg, time 30.0 day
[17] = system: SH-SY5Y; assay: Reduction in neurofibrillary tangles formation in OKA-treated human SH-SY5Y cells at 250 to 1000 nM by Western blot analysis; type: functional, cell-based; conditions: dose 250-1000 nM
[18] = biological target: T1, Glycogen synthase kinase-3 beta; assay: Inhibition of GSK3beta in human SH-SY5Y cells assessed as increase in OKA-induce GSK3beta at serine 9 hyperphosphorylation by Western blot analysis; type: cell-based
Target sequence in this assay (P49841 whole entry, looked up): as the sequence (P49841 whole entry) above

SMILES: NC(=O)c1ccc2c(c1)[nH]c1c(NC(=O)C3CC3)nccc12
IC50 [1]: 0.2 µM
Papp [2]: 0.7 ×10⁻⁶ cm/s

Papp [2]: 3.2 ×10⁻⁶ cm/s
SMILES: Cn1c(=O)c2c(ncn2C)n(C)c1=O [CAFFEINE]

SMILES: COc1ccc2c(c1)[nH]c1c(NC(=O)C3CC3)nccc12
IC50 [1]: 0.144 µM
Papp [2]: 15.6 ×10⁻⁶ cm/s

SMILES: COc1ccc(-c2ccc3c(c2)[nH]c2c(NC(=O)C4CC4)nccc23)cc1
IC50 [1]: > 10 µM

SMILES: COc1ccc2c(c1)[nH]c1cnc(NC(=O)C3CC3)cc12
IC50 [1]: 8.1 µM

SMILES: N#Cc1ccc2c(c1)[nH]c1c(NC(=O)C3CC3)nccc12
IC50 [1]: > 10 µM

SMILES: O=C(Nc1nccc2c1[nH]c1cc(F)ccc12)C1CC1
IC50 [1]: 4.8 µM
Papp [2]: 33.3 ×10⁻⁶ cm/s

SMILES: O=C(Nc1nccc2c1[nH]c1cc(-c3cccnc3)ccc12)C1CC1
IC50 [1]: > 10 µM

SMILES: O=C(Nc1nccc2c1[nH]c1cc(OC(F)(F)F)ccc12)C1CC1
IC50 [1]: 7.62 µM

SMILES: [Cl-].[Li+]
Activity [3]: Active

Papp [2]: 4 ×10⁻⁶ cm/s
SMILES: Clc1cccc(Cl)c1N=C1NCCN1 [CLONIDINE]

SMILES: O=C(Nc1cc2c(cn1)[nH]c1cc(Cl)ccc12)C1CC1
IC50 [1]: > 10 µM

SMILES: N#Cc1ccc2c(c1)[nH]c1cnc(NC(=O)C3CC3)cc12
IC50 [1]: > 10 µM

SMILES: O=Cc1ccc2c(c1)[nH]c1cnc(NC(=O)C3CC3)cc12
IC50 [1]: > 10 µM

SMILES: COC(=O)c1ccc2c(c1)[nH]c1cnc(NC(=O)C3CC3)cc12
IC50 [1]: > 10 µM

SMILES: O=C(Nc1cc2c(cn1)[nH]c1cc(OC(F)(F)F)ccc12)C1CC1
IC50 [1]: > 10 µM

SMILES: O=Cc1ccc2c(c1)[nH]c1c(NC(=O)C3CC3)nccc12
IC50 [1]: 0.4 µM
Papp [2]: 14.3 ×10⁻⁶ cm/s

SMILES: O=C(Nc1nccc2c1[nH]c1cc(Cl)ccc12)C1CC1
IC50 [1]: 5.15 µM
Papp [2]: 21.5 ×10⁻⁶ cm/s

SMILES: COc1ccc(-c2ccc3c(c2)[nH]c2cnc(NC(=O)C4CC4)cc23)cc1
IC50 [1]: > 10 µM

SMILES: O=C(Nc1cc2c(cn1)[nH]c1cc(C(F)(F)F)ccc12)C1CC1
IC50 [1]: > 10 µM

SMILES: CN[C@@H]1C[C@H]2O[C@@](C)([C@@H]1OC)n1c3ccccc3c3c4c(c5c6ccccc6n2c5c31)C(=O)NC4 [STAUROSPORINE]
IC50 [4]: 12 nM

SMILES: O=C(Nc1cc2c(cn1)[nH]c1cc(F)ccc12)C1CC1
IC50 [1]: > 10 µM

SMILES: COc1ccc2c(c1)[nH]c1c(C)nccc12 [HARMINE]
Papp [2]: 44.6 ×10⁻⁶ cm/s
Activity [5]: Active

SMILES: O=C(Nc1nccc2c1[nH]c1cc(C(F)(F)F)ccc12)C1CC1
IC50 [1]: > 10 µM

SMILES: COC(=O)c1ccc2c(c1)[nH]c1c(NC(=O)C3CC3)nccc12
Activity [6]: Active
Activity [7]: Active
Activity [8]: 1%
Activity [9]: Active
Activity [10]: Active
Activity [11]: Active
IC50 [1]: 0.071 µM
Activity [12]: Non-Toxic
Papp [2]: 16.5 ×10⁻⁶ cm/s
Activity [13]: Non-Toxic
Activity [14]: Toxic
Activity [15]: 10%
Activity [16]: Active
Activity [17]: Active
Activity [18]: Dose-Dependent Effect

SMILES: NC(=O)c1ccc2c(c1)[nH]c1cnc(NC(=O)C3CC3)cc12
IC50 [1]: > 10 µM

SMILES: COc1ccc2c(c1)[nH]c1cnc(C)cc12
IC50 [1]: > 10 µM

SMILES: O=C(Nc1nccc2c1[nH]c1cc(-c3ccccc3)ccc12)C1CC1
IC50 [1]: 6.59 µM

SMILES: O=C(Nc1cc2c(cn1)[nH]c1cc(-c3cccnc3)ccc12)C1CC1
IC50 [1]: > 10 µM
